What was measured:
[1] = target: SARS-CoV-2 Main Protease (SARS-CoV-2) (UniProt P0DTD1)
Procedure: Compounds were seeded into assay-ready plates (Greiner 384 low volume, cat 784900) using an Echo 555 acoustic dispenser, and DMSO was back-filled for a uniform concentration in assay plates (DMSO concentration maximum 1%) Screening assays were performed in duplicate at 20µM and 50µM. […] Dose response assays were performed in 12 point dilutions of 2-fold, typically beginning at 100µM. […] Reagents for Mpro assay were dispensed into the assay plate in 10µl volumes for a final volume of 20µL.
Mpro was pre-incubated for 15 minutes at room temperature with compound before addition of substrate and a further 30 minute incubation. Protease reaction was measured in a BMG Pherastar FS with a 480/520 ex/em filter set. Raw data was mapped and normalized to high (Protease with DMSO) and low (No Protease) controls using Genedata Screener software.

[2] = target: SARS-CoV-2 Main Protease (SARS-CoV-2) (UniProt P0DTD1); remark: listed apart in the source

| SMILES | relative solubility at 20 uM | relative solubility at 100 uM | inhibition ([1]; 20.0 µM) | inhibition ([1]; 50.0 µM) | inhibition ([2]; 50.0 µM) | inhibition ([2]; 20.0 µM) | IC50 [2] |
| --- | --- | --- | --- | --- | --- | --- | --- |
| NS(=O)(=O)c1ccc(N2CCC(CN3CCCCC3)CC2)cc1 | 1 | 1.01 | -23.1% | -2.58% | 22.7% | – | – |
| NC(=O)C1Cc2ccccc2N(CC(=O)Nc2cnccn2)C1 (stereo not given) | 1 | 0.93 | 0.0292% | 6.19% | 0% | 0% | – |
| Cc1ccncc1NC(=O)Cc1cccc(Br)c1 | 1.01 | 1 | 56.2% | 77.7% | 98.3% | – | 15.9 µM |
| N#Cc1ccc(S(=O)(=O)N2CCN(C(=O)c3cc(=O)[nH]c4cc(F)ccc34)CC2)cc1 | 0.94 | 0.94 | 6.9% | 39.9% | 0.23% | – | – |
| COc1ccnc(NC(=O)Cc2ccc3ccccc3c2)c1 | 0.95 | 0.91 | 3.47% | 6.09% | 17.1% | 0% | – |
| C=CC(=O)N(c1ccc(C(C)(C)C)cc1)C(C(=O)NCCCOC)c1cccnc1 (stereo not given) | 0.99 | 0.98 | 3.35% | 19.4% | 39.5% | 12.2% | – |
| O=C(Cc1cc(Cl)cc(Cl)c1)Nc1nncs1 | 0.84 | 0.7 | 13.9% | -0.821% | 0% | – | – |
| Cc1ccc(NC(=O)Cc2cc3cccnc3[nH]2)s1 | 1 | 0.96 | 23.7% | 8.28% | 7.42% | – | – |
| C#Cc1cccc(N(C(=O)C=C)C(C(=O)NC(C)(C)C)c2cccnc2)c1 (stereo not given) | 1 | 1.01 | -3.84% | 3.7% | – | 0% | – |
| Cc1ccncc1NC(=O)C(C)c1cccc(C#N)c1 (stereo not given) | 1 | 1 | 35.4% | 61.4% | 58.4% | 21% | 45.3 µM |
| NS(=O)(=O)c1ccc(N2CCC([C@@H]3CCCO3)CC2)cc1 (stereo in doubt) | 0.99 | 1 | – | -16% | 52.2% | 35% | – |
| C=CC(=O)N(c1ccc(C(C)(C)C)cc1)C(C(=O)NCC1CCOC1)c1cccnc1 (stereo not given) | 1 | 0.99 | 25.7% | 41.3% | 29.4% | 1.1% | – |
| O=C(NCC1COc2ccccc2O1)c1cc(=O)[nH]c2cc(F)ccc12 (stereo not given) | 0.98 | 0.62 | -0.372% | -2.5% | 3.98% | – | – |
| Cc1ccncc1NC(=O)Nc1cccc(Cl)c1 | 0.99 | 0.96 | 32.1% | 58.7% | 64.1% | 25.6% | 45.7 µM |
| C=CC(=O)N1CCN(Cc2cccc3ccccc23)CC1 | 1 | 0.99 | -4.32% | 3.35% | – | 0% | – |
| C=CC(=O)N(c1ccc(C(C)(C)C)cc1)C(C(=O)NCCCSC)c1cccnc1 (stereo not given) | 1 | 1 | 50.3% | 75.6% | 100% | 70% | 13.7 µM |
| CC1CN(Cc2ccccc2NC(=O)NCc2cnsc2)CC(C)O1 (stereo not given) | 1 | 0.98 | 1.48% | 4.44% | 1.33% | 0% | – |
| NS(=O)(=O)c1ccc(N2CCSCC2)cc1 | 1 | 1 | – | -25.9% | 48.2% | 29.1% | – |
| CC(C)c1scnc1NC(=O)C1CCOc2ccc(Cl)cc21 (stereo not given) | 1 | 0.99 | 10% | 6.85% | 0% | – | – |

| SMILES | relative solubility at 20 uM | relative solubility at 100 uM | inhibition ([1]; 20.0 µM) | inhibition ([1]; 50.0 µM) | inhibition ([2]; 50.0 µM) | inhibition ([2]; 20.0 µM) | IC50 [2] |
| --- | --- | --- | --- | --- | --- | --- | --- |
| Cc1cccc(NC(=O)Cn2c(=O)oc3ccccc32)c1 | 0.99 | 0.94 | -20.4% | -5.83% | -9.03% | – | – |
| C=CC(=O)N(c1ccc(C(C)(C)CC)cc1)C(C(=O)Nc1ccc(Cl)cc1)c1cccnc1 (stereo not given) | 0.82 | 0.68 | 16.5% | 22.7% | – | 11.3% | – |
| Cc1ccncc1NC(=O)[C@@]12COC[C@@H]1C2 (stereo in doubt) | 1 | 1 | -0.441% | -2.2% | 0% | – | – |
| O=C(CSC1=NCCS1)c1cc(Cl)ccc1Cl | 0.77 | 0.64 | 5.24% | 2.86% | 44.8% | – | – |
| O=C(Nc1ccc(Oc2ncccn2)cc1)C(=O)N1CCN(Cc2cccs2)CC1 | 1 | 1 | -21% | -13.8% | – | 0% | – |
| NS(=O)(=O)c1ccc2c(c1)C(=O)C(=O)N2 | 1.01 | 1 | -2.6% | -3.21% | 37.1% | – | – |
| Cc1cccc(CS(=O)(=O)N2CCC(C(N)=O)CC2)c1 | 1.01 | 1.01 | -20.4% | 0.138% | 0% | – | – |
| COc1ccc2c(c1)C(C(=O)Nc1cncnc1C)CCC2 (stereo not given) | 1 | 1 | 6.97% | -24.1% | 2.78% | – | – |
| CCOC(=O)[C@H]1O[C@@H]1C(=O)N[C@@H](CC(C)C)C(=O)NCCC(C)C (stereo in doubt) | 1 | 1 | -1.54% | -5.21% | 0% | – | – |
| Cc1nn(-c2ccccc2)c(Nc2cccc(C(F)(F)F)c2)c1NS(C)(=O)=O | 0.95 | 0.97 | 3.18% | -5.82% | -10.6% | – | – |
| O=C(CCl)N1CCN(Cc2cccc(Cl)c2)C[C@@H]1Cc1ccccc1 (stereo in doubt) | 0.97 | 0.92 | 22.5% | 45.2% | 66.6% | – | 18.9 µM |
| Cc1ccncc1-c1ccc(S(N)(=O)=O)cc1 | 1 | 1 | – | 8.58% | -2.15% | -2.96% | – |
| NS(=O)(=O)c1ccc(N2CCC(Nc3ccccc3)CC2)cc1 | 1 | 1 | – | 9.57% | 22% | 27.2% | – |
| C=CC(=O)N(c1cc(C(C)(C)C)on1)C(C(=O)NCCc1cccc(F)c1)c1cncc(Cl)c1 (stereo not given) | 0.97 | 0.56 | 15.8% | 40.2% | 100% | – | 4.78 µM |
| Cc1ccnc(NC(=O)Cc2ccc3ccccc3c2)c1 | 0.98 | 0.94 | 3.57% | 8.23% | – | 0% | – |
| O=C(NC(Cc1ccccc1)C(=O)NCc1ccno1)OCc1ccccc1 (stereo not given) | 0.98 | 0.85 | – | 50.6% | 0% | 0% | – |
| CC(NC(=O)C(Cc1ccccc1)NC(=O)c1ccco1)c1ncco1 (stereo not given) | 1 | 1 | – | -28% | 0% | 0% | – |
| O=C(CCl)N1CCN(Cc2cccc(CNC(=O)N3CCOCC3)c2)CC1 | 1 | 1 | 11.7% | 32.4% | 95.6% | – | 50.3 µM |

From the COVID Moonshot data (paper PMC11187573), “Identification of SARS-CoV-2 Mpro inhibitors through deep reinforcement learning for de novo drug design and computational chemistry approaches” (RSC Medicinal Chemistry, 2024)
